Patent publication US4914201A, “Indolo[1,2-d][1,4]benzodiazepin-6(7H)-thiones” (Hoechst-Roussel Pharmaceuticals Inc., priority 1989, dated 1990)

System: 2-phenyl-1,4-benzoquinone-induced writhing in mice
Test: 2-phenyl-1,4-benzoquinone-induced writhing test in mice (analgesia, phenylquinone writhing, PQW)
Type: in vivo
Text: The compounds of Formula I of the present invention are useful as analgesic agents due to their ability to alleviate pain in mammals. […] Exptl. Biol. Med., 95, 729 (1957)].

Row | SMILES | Analgesic PQW, % Inhibition of Writhing at 20 mg/kg., s.c.
1 | Cc1nnc2n1-c1ccc(Cl)cc1-c1cc3ccccc3n1C2 [Example 9, 12-Chloro-1-methyl-4H-indolo[1,2-d][1,2,4]triazolo[4,3-a][1,4]benzodiazepine] | 46%
2 | Cc1nnc2n1-c1ccc(Cl)cc1-c1c(Cl)c3ccccc3n1C2 [Example 11, 10,12-Dichloro-1-methyl-4H-indolo[1,2-d][1,2,4]triazolo[4,3-a][1,4]benzodiazepine] | 32%
3 | Cc1nnc2n1-c1ccccc1-c1cc3ccccc3n1C2 [Example 7, 1-Methyl-4H-indolo[1,2-d][1,2,4]triazolo[4,3-a][1,4]benzodiazepine] | 37%
4 | Cc1nnc2n1-c1ccccc1-c1c(Cl)c3ccccc3n1C2 [Example 8, 10-chloro-1-methyl-4H-indolo-[1,2-d][1,2,4]triazolo[4,3-a]-[1,4]benzodiazepine] | 51%
